Bounds are passed on as bounds.

In patent US9771378B2 (Denali Therapeutics, Inc., priority 2014, dated 2017) one finds IC50 data, which are given here for 18 compounds.

For this test, the system named is Aβ42 (human neuroglioma H4 cells expressing human wild type APP751). The experiment in a line: In vitro cell screening assay with sandwich ELISA quantification of Aβ42 peptide. In kind it is cell-based. To be noted: H4 cells stably expressing human wild type APP751; Pro293 chemically defined medium; compounds 0.003-10 μM; incubated overnight (16-18 h); supernatant Aβ42 by sandwich ELISA; normalized to DMSO and DAPT; read-out: Aβ42 H4 Prot Fre IC50. The method, then:
Human neuroglioma H4 cells were transfected with a pcDNA3.1 plasmid expressing human wild type APP751 cDNA and a stable cell line was generated using G418 selection. Cells are plated at 15,000 cells/well in Costar 96-well plates and placed at 37° C. and 5% CO2. Six hours after plating, cells are washed three times with Pro293™ chemically defined medium, followed by addition of compounds (0.003-10 μM, final DMSO concentration of 0.33%). Plates were incubated overnight (16-18 h) and supernatant was removed for quantification of AP peptides by sandwich ELISA. Cytotoxicity was evaluated using Cell-Titer 96W AQueous One Solution Cell Proliferation Assay according to the manufacturer's protocol.
ELISA Measurements of Aβ Peptides
Aβ peptide levels were quantified by sandwich ELISA. 96-well plates are coated with C-terminal specific Aβ antibodies recognizing either Aβ37, Aβ38, Aβ40, Aβ42, Aβ43 or a N-terminal specific Aβ antibody to detect Aβ 1-x. Plates are then blocked overnight at 4° C. with 1% bovine serum albumin (BSA) in PBS-T. Plates are washed and 100 μl of cultured cell supernatant or synthetic Aβ peptide standards and a detection antibody (4G8-HRP) are applied to the blocked plate and incubated overnight at 4° C. The next day, wells are washed before the addition […] of detection substrate (TMB peroxidase). Plates are then read for absorbance at 450 nm on a Molecular Devices SpectraMax M5e Microplate Reader.
IC50 values were calculated from values reported as percent of DMSO controls using nonlinear regression, based on a sigmoidal dose-response (variable slope) model. GraphPAD software from Prism used for calculation.
As for `COc1cc(Nc2ncc3c(n2)N(C)C(C2COC2)CO3)cnc1-n1cnc(C)c1` (single isomer, unassigned; (-)) [Example 243B], the IC50 is 814 nM.
Under `Cc1cn(-c2ccc(Nc3ncc4c(n3)N3CCOC[C@H]3CO4)cc2F)cn1` [Example 299] stands more than 3000 nM; under `Cc1cn(-c2ccc(Nc3ncc4c(n3)N(C)C(c3ccccc3C)CO4)cc2F)cn1` (racemic) [Example 34], 44 nM.
Under `Cc1cn(-c2ccc(Nc3ncc4c(n3)N(C)C(C)CO4)cc2C(F)F)cn1` (single isomer, unassigned; (-)) [Example 214B] stands 2260 nM; under `COc1cc(Nc2ncc3c(n2)N2CCC(F)(F)C2CO3)ccc1-n1cnc(C)c1` (single isomer, unassigned; (+)) [Example 304B, (+)-7,7-difluoro-N-(3-methoxy-4-(4-methyl-1H-imidazol-1-yl)phenyl)-6a, 7,8,9-tetrahydro-6H-pyrimido [5,4-b] pyrrolo [1,2-d] [1, 4] oxazin-2-amine], 75 nM.
Under `COc1cc(Nc2ncc3c(n2)N(C)C(c2ccc(F)cc2C(F)(F)F)CO3)ccc1-n1cnc(C)c1` (single isomer, unassigned; (-)) [Example 94A] stands 78 nM.
Regarding `Cc1cn(-c2ccc(Nc3ncc4c(n3)N(C)C(c3ccccc3C)CO4)cc2)cn1` (single isomer, unassigned; (+)) [Example 43A], the IC50 stood at 31 nM.
Consider `Cc1cn(-c2ccc(Nc3ncc4c(n3)N3CCC[C@@]3(C)CO4)cc2F)cn1` [Example 292, (S)-N-(3-fluoro-4-(4-methyl-1H-imidazol-1-yl)phenyl)-6a-methyl-6a, 7,8,9-tetrahydro-6H-pyrimido [5,4-b] pyrrolo [1,2-d] [1, 4] oxazin-2-amine], for which the IC50 stood at 438 nM.
Under `Cc1cn(-c2ccc(Nc3ncc4c(n3)N(C)C(c3ccc(F)cc3)CO4)cc2F)cn1` (single isomer, unassigned; (-)) [Example 58B] stands 1950 nM; under `Cc1cn(-c2ccc(Nc3ncc4c(n3)N(C)C(c3ccc(F)cc3F)CO4)cc2F)cn1` (single isomer, unassigned; (-)) [Example 69B], more than 3000 nM; under `COc1cc(Nc2ncc3c(n2)N(C)C(c2ccc(F)cc2C(F)(F)F)CO3)ccc1-n1cnc(C)c1` (single isomer, unassigned; (+)) [Example 94B], 29 nM.
Under `Cc1cn(-c2ccc(Nc3ncc4c(n3)N(C)C(c3ccc(F)cc3C(F)(F)F)CO4)cc2F)cn1` (single isomer, unassigned; (-)) [Example 99B] stands 1040 nM; under `COc1cc(Cl)c(C2COc3cnc(Nc4ccc(-n5cnc(C)c5)c(OC)c4)nc3N2C)cc1Cl` (single isomer, unassigned; (+)) [Example 174B], 32 nM; under `COc1cc(Nc2ncc3c(n2)N(C)C2(CC2)CO3)ccc1-n1cnc(C)c1` [Example 257], 49 nM.
Under `COc1nc(Nc2ncc3c(n2)N(C)C(c2cc(F)c(F)c(F)c2)CO3)ccc1-n1cnc(C)c1` (single isomer, unassigned; (+)) [Example 188B] stands 275 nM.
For `CN1c2nc(Nc3ccc(C#N)cc3)ncc2OCC1c1cc(F)cc(F)c1` (single isomer, unassigned; (+)) [Example 233A, (+)-4-((7-(3,5-difluorophenyl)-8-methyl-7,8-dihydro-6H-pyrimido [5,4-b] [1, 4]oxazin-2-yl)amino) benzonitrile], the IC50 is 888 nM.
In the case of `COc1cc(Nc2ncc3c(n2)N(C)C(C2CCOCC2)CO3)ccc1-n1cnc(C)c1` (single isomer, unassigned; (+)) [Example 114B] it was 77 nM; in that of `Cc1cn(-c2ccc(Nc3ncc4c(n3)N(C)C(c3cc(F)cc(F)c3)CO4)cc2F)cn1` (single isomer, unassigned; (+)) [Example 33A], 14 nM.
